What was measured:
[1] = test system: S. cerevisiae; test: Effect of hexanoic acid on growth of S. cerevisiae strain HB13 (A600 of culture); assay type: cell-based, Saccharomyces cerevisiae; details: for growth (A600): HB13-HA, 0.5 mM hexanoic acid
Method: (§1) Yeast cultures were grown in overnight cultures with selective media to provide starter cultures. The resulting starter cultures were then used to inoculate triplicate 50 ml cultures to an optical density at having an absorption at 600 nm (“A600”) of 0.1.
HB13 was cultured in YNB+2% glucose+1.6 g/L 4DO*+0.5 mM hexanoic acid. Hexanoic acid was added at 36 hours of culture. The hexanoic acid was added to separate culture samples at concentrations of 0, 0.5, 1.0 and 3.0 mM. Hexanoic acid is toxic to S. cerevisiae. […] The magnitude of the decrease in S. cerevisiae growth corresponds to the concentration of hexanoic acid in the growth media. The A600 value of culture suspensions quantifies the growth rate, which is shown at hexanoic acid concentrations of 0, 0.5, 1.0 and 3.0 mM in FIG. 12.
(§2) In the presence of 0.5 mM hexanoic acid, HB13 and HB37 were grown for 96 hours with samples taken at the 24h, 36h, 48h, 60, 72h, 84h and 96h points. In the absence of hexanoic acid, HB13 and HB84 were grown and a single time point was taken at 72 hours. HB13 was used as a control in both experiments. The growth media are described above in relation to Tables 8 and 9.

[2] = test system: S. cerevisiae; test: Growth of S. cerevisiae strain HB37 in the presence of hexanoic acid (A600 of culture); assay type: cell-based, Saccharomyces cerevisiae; details: HB37-HA, 0.5 mM hexanoic acid
Method: as §1, §2
FIGS. 13 to 15 each show the A600 values of the HB37 culture listed in Table 10 (dashed lines with triangle data points).

CCCCCC(=O)O [hexanoic acid]
growth (A600) ([1]; 24 h): 5.33
growth (A600) ([1]; 36 h): 5.80
growth (A600) ([1]; 48 h): 4.67
growth (A600) ([1]; 60 h): 6.07
growth (A600) ([1]; 72 h): 8.96
growth (A600) ([1]; 84 h): 7.23
growth (A600) ([1]; 96 h): 8.28
effect of hexanoic acid supplementation on growth of S. cerevisiae (A600) ([1]; HB13, hexanoic acid added at 36 hours at 0, 0.5, 1.0 and 3.0 mM, FIG. 12): Decreased growth
growth (A600) ([2]; 24 h): 3.33
growth (A600) ([2]; 36 h): 3.43
growth (A600) ([2]; 48 h): 3.33
growth (A600) ([2]; 60 h): 3.53
growth (A600) ([2]; 72 h): 4.48
growth (A600) ([2]; 84 h): 4.13
growth (A600) ([2]; 96 h): 4.33

Source: patent US20200283807A1, “METHOD AND CELL LINE FOR PRODUCTION OF PHYTOCANNABINOIDS AND PHYTOC[…] IN YEAST” (Hyasynth Biologicals Inc., priority 2017, published 2020)
